Values of other authors, collected in patent US8652520B2, “Combination tablet with chewable outer layer” (Vitalis LLC, priority 2007, dated 2014).

Assays:
[1] = risk of bleeding peptic ulcer, literature
[2] = tested on: anti-platelet activity of aspirin; settings: co-administered with aspirin, literature

| Compound | GI side effects among the NSAID agents [1] | anti-platelet activity of aspirin when given in conjunction [2] |
| --- | --- | --- |
| O=C(O)Cc1ccccc1Nc1c(Cl)cccc1Cl [diclofenac] | least GI side effects | – |
| CC(C)Cc1ccc(C(C)C(=O)O)cc1 (stereo not drawn) [ibuprofen, 2-[4-(2-methylpropyl)phenyl]propanoic acid] | least GI side effects | decreased |
